Results as given in patent US20140135310A1, “SULPHONAMIDE DERIVATIVES OF ALICYCLIC AMINES FOR THE TREATMENT OF CENTRAL NERVOUS SYSTEM DISEASES” (Adamed Sp. z o.o., priority 2011, published 2014).

Experiments:
5-HT7 receptor = biological target: T1, 5-HT7 receptor (Homo sapiens, UniProt P34969); test: Radioligand binding assay, serotoninergic 5-HT7 receptors; conditions: binding assay result in %, Table 5a;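 note: test compound at 1 µM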
T1 construct: purchased PerkinElmer
Method in brief: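 Ki values used the Cheng–Prusoff equation, with KD from Scatchard analysis, applied to IC50 from Hill fits of human 5-HT7 radioligand competition curves. Bound radioligand was counted by scintillation, and excess unlabelled ligand set the non-specific binding.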

[1] = biological target: T2, 5-HT1A receptor (rat hippocampus) (Rattus norvegicus, UniProt P19327); test: Radioligand binding assay, serotoninergic 5-HT1A receptors; conditions: binding assay result in %, Table 5a;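 note: test compound at 1 µM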
T2 construct: hippocampus; from tissue; host or cells: rat hippocampus
T2 sequence (P19327 1-422): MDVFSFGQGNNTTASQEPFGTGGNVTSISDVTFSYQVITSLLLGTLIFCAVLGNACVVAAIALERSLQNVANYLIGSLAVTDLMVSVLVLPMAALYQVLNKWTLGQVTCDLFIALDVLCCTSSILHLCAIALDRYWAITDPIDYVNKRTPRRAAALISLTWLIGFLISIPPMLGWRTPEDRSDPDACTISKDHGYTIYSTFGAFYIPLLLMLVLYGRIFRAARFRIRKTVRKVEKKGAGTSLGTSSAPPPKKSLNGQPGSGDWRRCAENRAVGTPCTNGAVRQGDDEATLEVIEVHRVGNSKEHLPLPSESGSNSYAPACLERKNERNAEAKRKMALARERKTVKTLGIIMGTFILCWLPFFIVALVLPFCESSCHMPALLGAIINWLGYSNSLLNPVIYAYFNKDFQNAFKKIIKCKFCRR

[2] = biological target: dopaminergic receptors D3 (Homo sapiens, UniProt P35462); test: Radioligand binding assay, dopaminergic D3 receptors; conditions: test compound 1×10^−6 M
Chain of dopaminergic receptors D3 (P35462 whole entry): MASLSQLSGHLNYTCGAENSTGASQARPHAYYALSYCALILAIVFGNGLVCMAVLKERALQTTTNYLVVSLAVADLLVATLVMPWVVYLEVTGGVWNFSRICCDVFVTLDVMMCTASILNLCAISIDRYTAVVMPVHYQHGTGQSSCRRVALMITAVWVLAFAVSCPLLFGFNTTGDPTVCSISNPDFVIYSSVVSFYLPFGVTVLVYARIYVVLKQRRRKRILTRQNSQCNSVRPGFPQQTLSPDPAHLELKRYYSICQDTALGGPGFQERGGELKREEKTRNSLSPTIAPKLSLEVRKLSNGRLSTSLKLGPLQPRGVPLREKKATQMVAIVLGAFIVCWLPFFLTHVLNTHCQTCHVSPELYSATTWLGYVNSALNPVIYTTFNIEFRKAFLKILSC
Method in brief: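 Scintillation read-out. Specific = total − nonspecific (excess cold ligand). Data as % of control specific binding / % inhibition; IC50 by Hill fit; Ki = IC50/(1+L/KD), KD from Scatchard plot.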

5-HT2A receptor = biological target: T3, 5-HT2A receptor (Homo sapiens, UniProt P28223); test: Radioligand binding assay, serotoninergic 5-HT2A receptors; conditions: binding assay result in %, Table 5a
T3 construct: purchased PerkinElmer
T3 sequence (P28223 whole entry): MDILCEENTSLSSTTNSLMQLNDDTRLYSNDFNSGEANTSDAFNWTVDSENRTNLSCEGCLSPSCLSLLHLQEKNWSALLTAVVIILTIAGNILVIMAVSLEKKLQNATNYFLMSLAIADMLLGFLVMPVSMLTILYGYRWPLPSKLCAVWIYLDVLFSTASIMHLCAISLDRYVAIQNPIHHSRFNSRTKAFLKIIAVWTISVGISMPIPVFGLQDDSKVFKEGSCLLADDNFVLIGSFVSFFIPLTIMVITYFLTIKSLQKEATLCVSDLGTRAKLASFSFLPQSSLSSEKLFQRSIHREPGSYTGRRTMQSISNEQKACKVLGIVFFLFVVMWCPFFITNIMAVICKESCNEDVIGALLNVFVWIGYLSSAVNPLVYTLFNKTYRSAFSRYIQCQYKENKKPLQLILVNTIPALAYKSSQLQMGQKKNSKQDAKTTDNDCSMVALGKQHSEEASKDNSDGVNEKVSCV
Method in brief: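 Competition curves from scintillation-counted specific binding (total minus binding with excess unlabelled ligand) were Hill-fitted to give IC50, converted to Ki via Cheng-Prusoff using Scatchard-derived Kd.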

5-HT6 receptor = biological target: T4, 5-HT6 receptor (Homo sapiens, UniProt P50406); test: Radioligand binding assay, serotoninergic 5-HT6 receptors; conditions: binding assay result in %, Table 5a;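 note: test compound at 1 µM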
T4 construct: purchased PerkinElmer
T4 sequence (P50406 whole entry): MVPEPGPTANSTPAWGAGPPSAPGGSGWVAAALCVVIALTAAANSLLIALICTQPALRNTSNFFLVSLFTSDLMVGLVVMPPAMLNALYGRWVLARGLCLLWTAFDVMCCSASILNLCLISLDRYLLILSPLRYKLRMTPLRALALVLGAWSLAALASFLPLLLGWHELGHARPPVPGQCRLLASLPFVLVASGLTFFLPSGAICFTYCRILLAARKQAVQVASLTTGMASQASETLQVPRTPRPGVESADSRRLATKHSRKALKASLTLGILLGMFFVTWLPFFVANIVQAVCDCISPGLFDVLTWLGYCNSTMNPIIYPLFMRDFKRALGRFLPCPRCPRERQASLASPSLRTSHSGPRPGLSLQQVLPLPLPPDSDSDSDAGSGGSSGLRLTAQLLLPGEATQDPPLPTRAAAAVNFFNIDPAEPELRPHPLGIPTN
Method in brief: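 Values are Ki from Cheng–Prusoff, taking IC50 from Hill nonlinear regression of competition curves and KD from a Scatchard plot. Specific binding was total minus binding with excess unlabelled ligand. Radioligand displacement was detected by scintillation counting, and data were also reported as percent of control specific binding.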

[3] = tested on: α1 adrenergic receptors (rat cerebral cortex); test: Radioligand binding assay, adrenergic α1 receptors; conditions: test compound 1×10^−6 M
Source text: The specific ligand binding to the receptors is defined as the difference between the total binding and the non-specific binding determined in the presence of the excess of unlabelled ligand.
The results are expressed as a percent of control specific binding ((measured specific binding/control specific binding)×100) and as a percent inhibition of control specific binding (100−((measured specific binding/control specific binding)×100)) obtained in the presence of the test compounds. The specific ligand binding to the receptors is defined as the difference between the total binding and the nonspecific binding determined in the presence of an excess of unlabelled ligand. Scintillation counting was the method of detection of ligand binding. The IC50 values (concentration causing a half-maximal inhibition of control specific binding) were determined by non-linear regression analysis of the competition curves generated with mean replicate values using Hill equation curve fitting (Y=D+[(A−D)/(1+(C/C50)nH)], where Y=specific binding, D=minimum specific binding, A=maximum specific binding, C=compound concentration, C50=IC50, and nH=slope factor). […] The inhibition constants (Ki) were calculated using the Cheng Prusoff equation (Ki=IC50/(1+(L/KD)), where L=concentration of radioligand in the assay, and KD=affinity of the radioligand for the receptor). A scatchard plot was used to determine the Kd.

[4] = biological target: T5, serotonin transporter (SERT) (Homo sapiens, UniProt P31645); test: Radioligand binding assay, serotonin transporter (SERT); conditions: binding assay, test compound 1×10^−6 M
T5 construct: expressed in transfected cells; host or cells: CHO cells
T5 sequence (P31645 whole entry): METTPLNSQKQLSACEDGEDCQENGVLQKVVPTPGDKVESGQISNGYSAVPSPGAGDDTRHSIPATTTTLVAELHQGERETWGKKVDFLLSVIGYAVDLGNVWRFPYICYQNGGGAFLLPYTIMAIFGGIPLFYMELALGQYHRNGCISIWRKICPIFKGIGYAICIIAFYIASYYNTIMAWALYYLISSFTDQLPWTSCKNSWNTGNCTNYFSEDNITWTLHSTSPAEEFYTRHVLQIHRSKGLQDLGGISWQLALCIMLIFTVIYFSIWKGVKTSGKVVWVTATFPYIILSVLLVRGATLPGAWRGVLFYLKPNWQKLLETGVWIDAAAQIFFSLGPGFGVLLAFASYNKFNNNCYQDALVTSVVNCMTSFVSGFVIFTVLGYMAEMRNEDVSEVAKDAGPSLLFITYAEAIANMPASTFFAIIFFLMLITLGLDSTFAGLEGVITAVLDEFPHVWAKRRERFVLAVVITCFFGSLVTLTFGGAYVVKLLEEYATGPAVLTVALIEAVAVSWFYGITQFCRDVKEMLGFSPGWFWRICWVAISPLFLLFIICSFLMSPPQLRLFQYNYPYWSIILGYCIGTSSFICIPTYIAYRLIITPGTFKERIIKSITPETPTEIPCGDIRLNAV
Method in brief: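 Values are derived from competition curves fitted by the Hill equation to give IC50, then converted to Ki by Cheng-Prusoff with radioligand Kd from Scatchard analysis. Specific binding equals total minus non-specific (excess cold ligand), counted by scintillation, and is also expressed as percent inhibition of control.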

[5] = biological target: dopaminergic receptors D2 (Homo sapiens, UniProt P14416); test: Radioligand binding assay, dopaminergic D2 receptors; conditions: binding assay, test compound 1×10^−6 M
Chain of dopaminergic receptors D2 (P14416 whole entry): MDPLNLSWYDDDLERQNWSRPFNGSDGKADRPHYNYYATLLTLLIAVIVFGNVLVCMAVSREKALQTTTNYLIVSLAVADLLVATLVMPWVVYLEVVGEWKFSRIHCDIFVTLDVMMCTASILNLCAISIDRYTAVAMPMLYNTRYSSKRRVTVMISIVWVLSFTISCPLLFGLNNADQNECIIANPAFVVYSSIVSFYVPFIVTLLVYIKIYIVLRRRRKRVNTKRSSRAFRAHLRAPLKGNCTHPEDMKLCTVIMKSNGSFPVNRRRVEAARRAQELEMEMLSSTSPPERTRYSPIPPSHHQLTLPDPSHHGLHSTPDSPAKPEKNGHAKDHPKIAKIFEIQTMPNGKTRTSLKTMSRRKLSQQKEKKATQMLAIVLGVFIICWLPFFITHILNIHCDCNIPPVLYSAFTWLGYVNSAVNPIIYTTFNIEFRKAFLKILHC
Method in brief: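 Displacement of radioligand from human dopamine D2, D3 or D4.4 receptors, counted by scintillation; specific binding is total minus binding under excess unlabelled ligand. IC50 values come from Hill curve fits of percent inhibition, then converted to Ki by Cheng-Prusoff using Scatchard-derived KD.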

T1 sequence (P34969 whole entry): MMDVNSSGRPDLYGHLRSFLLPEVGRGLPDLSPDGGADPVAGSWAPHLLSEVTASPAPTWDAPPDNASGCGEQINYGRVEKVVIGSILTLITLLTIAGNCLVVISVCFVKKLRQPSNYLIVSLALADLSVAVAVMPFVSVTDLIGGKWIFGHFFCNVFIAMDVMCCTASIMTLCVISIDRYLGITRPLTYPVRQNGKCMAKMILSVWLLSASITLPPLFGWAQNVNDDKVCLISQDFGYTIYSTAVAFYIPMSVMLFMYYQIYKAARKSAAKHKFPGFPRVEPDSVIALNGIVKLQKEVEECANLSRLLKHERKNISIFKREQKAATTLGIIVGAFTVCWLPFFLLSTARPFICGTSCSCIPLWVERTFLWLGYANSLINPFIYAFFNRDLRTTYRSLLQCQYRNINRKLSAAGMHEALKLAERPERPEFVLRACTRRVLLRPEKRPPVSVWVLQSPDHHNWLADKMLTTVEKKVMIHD

Structure (SMILES) | inhibition at 1 µM (5-HT7 receptor) | inhibition at 1 µM [1] | inhibition at 1 µM [2] | inhibition at 1 µM (5-HT2A receptor) | inhibition at 1 µM (5-HT6 receptor) | α1 [%] [3] | inhibition at 1 µM [4] | inhibition at 1 µM [5] | 5-HT7 [%] (5-HT7 receptor) | 5-HT1A [%] [1] | D3 [%] [2] | 5-HT2A [%] (5-HT2A receptor) | 5-HT6 [%] (5-HT6 receptor) | SERT [%] [4] | D2 [%] [5]
Cc1cccc(S(=O)(=O)NC2CCN(CCOc3cccc4[nH]ccc34)C2)c1 (stereo not shown) [Compound 52, N-[1-[2-(1H-Indol-4-yloxy)ethyl]pyrrolidin-3-yl]-3-methylbenzene-sulphonamide] | 90% | 90% | 106% | 89% | 41% | 81% | 38% | 77% | – | – | – | – | – | – | –
O=S(=O)(NCC1CCN(CCCc2noc3cc(F)ccc23)CC1)c1ccc2ccccc2c1 [Compound 38, N-[[1-[3-(6-Fluoro-1,2-benzoxazol-3-yl)propyl]-4-piperidine]methyl]-naphthalene-2-sulphonamide] | – | – | – | – | – | 98% | – | – | 94% | 25% | 64% | 82% | 104% | 17% | 77%
O=S(=O)(NC1CCN(CCOc2cccc3c2OCCO3)CC1)c1cccc2ccccc12 [Compound 100, N-[1-[2-(2,3-dihydro-1,4-benzodioxan-8-yloxy)ethyl]-4-piperidine]-naphthalene-1-sulphonamide] | – | – | – | – | – | 87% | – | – | 103% | 94% | 74% | 97% | 28% | 57% | 41%
Cc1c(S(=O)(=O)NCC2CN(CCOc3cccc4ccccc34)C2)sc2ccc(F)cc12 [Compound 166, 5-Fluoro-3-methyl-N-[[1-[2-(1-naphthyloxy)ethyl]azetidin-3-yl]methyl]benzothiophene-2-sulphonamide] | 97% | 78% | 101% | 100% | 98% | 23% | 32% | 82% | – | – | – | – | – | – | –
O=S(=O)(NC1CCN(CCOc2nsc3ccccc23)CC1)c1ccc2ccccc2c1 [Compound 40, N-[1-[2-(1,2-Benzothiazol-3-yloxy)ethyl]-4-piperidine]naphthalene-2-sulphonamide] | – | – | – | – | – | 12% | – | – | 85% | 68% | 39% | 102% | 72% | −5% | 49%
O=S(=O)(NCC1CN(CCOc2cccc3c2OCCO3)C1)c1ccsc1 [Compound 191, N-[[1-[2-(2,3-Dihydro-1,4-benzodioxin-5-yloxy)ethyl]azetidin-3-yl]methyl]-thiophene-3-sulphonamide] | 93% | 98% | 25% | 42% | 5% | 54% | 32% | 7% | – | – | – | – | – | – | –
O=S(=O)(NC1CCN(CCCc2noc3cc(F)ccc23)C1)c1ccc(Cl)s1 (stereo not shown) [Compound 22, 5-Chloro-N-[1-[3-(6-fluoro-1,2-benzoxazol-3-yl)propyl]pyrrolidin-3-yl]thiophene-2-sulphonamide] | 85% | 0% | 23% | 95% | 72% | 91% | 5% | 85% | – | – | – | – | – | – | –
O=S(=O)(NC1CCN(CCOc2cccc3[nH]ccc23)CC1)c1cccc2ccccc12 [Compound 60, N-[1-[2-(1H-Indol-4-yloxy)ethyl]-4-piperidine]naphthalene-1-sulphonamide] | – | – | – | – | – | 87% | – | – | 96% | 85% | 102% | 76% | 69% | 21% | 41%
